Among the data in patent publication US9328099B2, “Cyanomethylpyrazole carboxamides as janus kinase inhibitors” (Merck Sharp & Dohme Corp., priority 2011, dated 2016) are IC50 values, retold here.

In one assay the target is JAK1 (Homo sapiens (Human), UniProt P23458). In words: Jak Biochemical HTRF Assay, JAK1. The following applies: read-out: JAK1 IC50. From the text: (§1) Jak Biochemical HTRF Assay Protocol
(§2) Subsequent reagent additions employed an Agilent Bravo.

Another assay has as its target JAK2 (Homo sapiens (Human), UniProt O60674). The assay is described as follows: Jak Biochemical HTRF Assay, JAK2. The settings on record: HTRF biochemical assay, GST-tagged catalytic domain; top concentration tested […].
Description: as §1, §2

Where [1] appears, read: HTRF biochemical assay, GST-tagged catalytic domain, top concentration tested […].

Like-named read-outs stand apart in the source and are kept apart here.

Chain of JAK2 (O60674 849-1124): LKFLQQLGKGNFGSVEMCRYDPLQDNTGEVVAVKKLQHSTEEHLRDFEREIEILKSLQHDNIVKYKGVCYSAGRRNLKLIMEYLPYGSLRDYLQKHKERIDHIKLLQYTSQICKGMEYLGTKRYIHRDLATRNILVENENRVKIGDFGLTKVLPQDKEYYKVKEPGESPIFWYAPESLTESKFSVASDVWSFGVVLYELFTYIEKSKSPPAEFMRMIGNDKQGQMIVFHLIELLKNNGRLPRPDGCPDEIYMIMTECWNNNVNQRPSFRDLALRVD
Chain of JAK1 (P23458 875-1153): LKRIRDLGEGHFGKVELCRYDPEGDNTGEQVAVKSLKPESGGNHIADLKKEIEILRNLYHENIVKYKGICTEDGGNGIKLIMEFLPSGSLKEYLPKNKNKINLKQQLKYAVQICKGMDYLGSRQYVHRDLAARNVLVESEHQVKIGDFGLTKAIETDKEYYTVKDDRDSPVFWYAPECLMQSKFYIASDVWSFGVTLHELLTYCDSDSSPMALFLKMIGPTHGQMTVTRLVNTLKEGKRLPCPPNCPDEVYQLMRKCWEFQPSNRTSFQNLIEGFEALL

One may read the IC50 as the midpoint of a concentration-inhibition curve. With `N#CCC1(n2cc(C(N)=O)c(Nc3ccnc(F)c3)n2)CCN(Cc2cccc(O)c2)CC1` [Example 22-70, 1-[4-(cyanomethyl)-1-(3-hydroxybenzyl)piperidin-4-yl]-3-[(2-fluoropyridin-4-yl)amino]-1H-pyrazole-4-carboxamide], the half-maximal inhibitory concentration (IC50) on JAK1 (setting [1]) was 0.04 nM; against JAK2, 1 nM.

`N#CCC1(n2cc(C(N)=O)c(Nc3ccc(F)cc3)n2)CCC2(CC1)OCCO2` [Example 6-6, 1-[8-(cyanomethyl)-1,4-dioxaspiro[4.5]dec-8-yl]-3-[(4-fluorophenyl)amino]-1H-pyrazole-4-carboxamide]: the results for the IC50 on JAK1 (setting [1]) and against JAK2 were 7 nM and 48 nM, respectively.

On to `N#CCC1(n2cc(C(N)=O)c(Nc3ccnc(F)c3)n2)CCC(NCc2cccnc2)CC1` (stereo not drawn) [Example 41-22, Cis or trans 1-{1-(cyanomethyl)-4-[(pyridin-3-ylmethyl)amino]cyclohexyl}-3-[(2-fluoropyridin-4-yl)amino]-1H-pyrazole-4-carboxamide], for which the IC50 on JAK1 (setting [1]) was determined as 28 nM; on JAK2, 1050 nM.

Consider `CC(C#N)C1(n2cc(C(N)=O)c(Nc3ccc(F)cc3)n2)CCN(C(=O)OC(C)(C)C)CC1` (stereo not drawn) [Example 5-1, tert-Butyl 4-(4-carbamoyl-3-((4-fluorophenyl)amino)-1H-pyrazol-1-yl)-4-(1-cyanoethyl)piperidine-1-carboxylate], for which the IC50 at JAK1 (setting [1]) turned out to be 34 nM; on JAK2 it was 162 nM.

Regarding `N#CCC1(n2cc(C(N)=O)c(Nc3ccc(F)cc3)n2)CCC(Nc2cccnc2)CC1` (stereo not drawn) [Example 40-39, Cis or trans 1-[1-(cyanomethyl)-4-(pyridin-3-ylamino)cyclohexyl]-3-[(4-fluorophenyl)amino]-1H-pyrazole-4-carboxamide], the half-maximal inhibitory concentration (IC50) on JAK1 (setting [1]) amounted to 30 nM; on JAK2 it was 760 nM.

As for `Cc1cccc(C)c1NC(=O)N1CC(CC#N)(n2cc(C(N)=O)c(Nc3ccccc3)n2)C1` [Example 38-31, 1-{3-(cyanomethyl)-1-[(2,6-dimethylphenyl)carbamoyl]azetidin-3-yl}-3-(phenylamino)-1H-pyrazole-4-carboxamide], the concentration for half-maximal inhibition (IC50) worked out at 33 nM on JAK1 (setting [1]) and 656 nM against JAK2.

Turning to `CN(c1ccccc1)C1CCC(CC#N)(n2cc(C(N)=O)c(Nc3ccnc(F)c3)n2)CC1` (stereo not drawn) [Example 40-34, Cis or trans 1-{1-(cyanomethyl)-4-[methyl(phenyl)amino]cyclohexyl}-3-[(2-fluoropyridin-4-yl)amino]-1H-pyrazole-4-carboxamide], the IC50 came out at 4 nM at JAK1 (setting [1]) and 105 nM on JAK2.

As to `N#CCC1(n2cc(C(N)=O)c(Nc3ccc(F)cc3)n2)CCN(Cc2cc(F)ccn2)CC1` [Example 22-50, 1-{4-(cyanomethyl)-1-[(4-fluoropyridin-2-yl)methyl]piperidin-4-yl}-3-[(4-fluorophenyl)amino]-1H-pyrazole-4-carboxamide], the IC50 at JAK1 (setting [1]) was found to be 0.6 nM; against JAK2, 16 nM.

As for `CC(C)(C(=O)N1CCC(CC#N)(n2cc(C(N)=O)c(Nc3ccnc(F)c3)n2)CC1)C(F)(F)F` [Example 34-55, 1-[4-(cyanomethyl)-1-(3,3,3-trifluoro-2,2-dimethylpropanoyl)piperidin-4-yl]-3-[(2-fluoropyridin-4-yl)amino]-1H-pyrazole-4-carboxamide], the concentration for half-maximal inhibition (IC50) is 1 nM at JAK1 (setting [1]) and 28 nM at JAK2.

On to `N#CCC1(n2cc(C(N)=O)c(Nc3ccccc3)n2)CCN(C(=O)OC2Cc3ccccc3C2)CC1` [Example 30-34, 2,3-dihydro-1H-inden-2-yl 4-[4-carbamoyl-3-(phenylamino)-1H-pyrazol-1-yl]-4-(cyanomethyl)piperidine-1-carboxylate], for which the IC50 at JAK1 (setting [1]) worked out at 3 nM; at JAK2 it was 83 nM.

For `CC(C)(C)OC(=O)N1CCC(CC#N)(n2cc(C(N)=O)c(Nc3ccccn3)n2)CC1` [Example 13-3, tert-butyl 4-(4-carbamoyl-3-(pyridin-2-ylamino)-1H-pyrazol-1-yl)-4-(cyanomethyl)piperidine-1-carboxylate], the IC50 was determined as 8 nM at JAK1 (setting [1]) and 466 nM against JAK2.

As to `N#CCC1(n2cc(C(N)=O)c(Nc3ccc(F)cc3)n2)CCN(Cc2cccc3[nH]ccc23)CC1` [Example 22-57, 1-[4-(cyanomethyl)-1-(1H-indol-4-ylmethyl)piperidin-4-yl]-3-[(4-fluorophenyl)amino]-1H-pyrazole-4-carboxamide], the IC50 at JAK1 (setting [1]) is 14 nM; at JAK2, 280 nM.

Regarding `CC(C)(C)OC(=O)N1CCC(CC#N)(n2cc(C(N)=O)c(Nc3cccnn3)n2)CC1` [Example 13-6, tert-butyl 4-(4-carbamoyl-3-(pyridazin-3-ylamino)-1H-pyrazol-1-yl)-4-(cyanomethyl)piperidine-1-carboxylate], the values for the IC50 at JAK1 (setting [1]) and on JAK2 were 26 nM and 179 nM, respectively.

As to `N#CCC1(n2cc(C(N)=O)c(Nc3ccc(F)cc3)n2)CCN(c2ccc(OC(F)F)nc2)CC1` [Example 3-13, 1-{4-(cyanomethyl)-1-[6-(difluoromethoxy)pyridin-3-yl]piperidin-4-yl}-3-[(4-fluorophenyl)amino]-1H-pyrazole-4-carboxamide], the IC50 at JAK1 (setting [1]) is 0.7 nM; against JAK2 it was 21 nM.

As for `Cc1ccc(N2CCC(CC#N)(n3cc(C(N)=O)c(Nc4ccc(F)cc4)n3)CC2)cc1F` [Example 3-34, 1-[4-(cyanomethyl)-1-(3-fluoro-4-methylphenyl)piperidin-4-yl]-3-[(4-fluorophenyl)amino]-1H-pyrazole-4-carboxamide], the figures for the IC50 on JAK1 (setting [1]) and at JAK2 were 5 nM and 215 nM, respectively.

As to `N#CCC1(n2cc(C(N)=O)c(Nc3ccc(S(=O)(=O)C(F)F)cc3)n2)CCC(NC2CCCCC2)CC1` (stereo not drawn) [Example 40-57, Cis or trans 1-[1-(cyanomethyl)-4-(cyclohexylamino)cyclohexyl]-3-({4-[(difluoromethyl)sulfonyl]phenyl}amino)-1H-pyrazole-4-carboxamide], the concentration for half-maximal inhibition (IC50) at JAK1 was 415 nM; against JAK2, greater than 1500 nM.

On to `COCC(=O)N1CCC(CC#N)(n2cc(C(N)=O)c(Nc3ccccc3)n2)CC1` [Example 34-2, 1-[4-(cyanomethyl)-1-(methoxyacetyl)piperidin-4-yl]-3-(phenylamino)-1H-pyrazole-4-carboxamide], for which the figures for the IC50 on JAK1 (setting [1]) and against JAK2 were 5 nM and 93 nM, respectively.

`N#CCC1(n2cc(C(N)=O)c(Nc3ccnc(F)c3)n2)CCN(Cc2cc3ccccn3n2)CC1` [Example 22-34, 1-[4-(cyanomethyl)-1-(pyrazolo[1,5-a]pyridin-2-ylmethyl)piperidin-4-yl]-3-[(2-fluoropyridin-4-yl)amino]-1H-pyrazole-4-carboxamide]: the IC50 on JAK1 (setting [1]) was 8 nM; at JAK2, 163 nM.

For the compound `CC(CO)OC(=O)N1CCC(CC#N)(n2cc(C(N)=O)c(Nc3ccc(F)cc3)n2)CC1` (stereo not drawn) [Example 31, 2-Hydroxy-1-methylethyl 4-{4-carbamoyl-3-[(4-fluorophenyl)amino]-1H-pyrazol-1-yl}-4-(cyanomethyl)piperidine-1-carboxylate], the IC50 is 0.4 nM at JAK1 (setting [1]) and 8 nM at JAK2.

Regarding `N#CCC1(n2cc(C(N)=O)c(Nc3ccc(-c4cn[nH]c4)nc3)n2)CCN(C(=O)OCC(F)(F)F)CC1` [Example 11-2, 2,2,2-trifluoroethyl 4-(4-carbamoyl-3-{[6-(1H-pyrazol-4-yl)pyridin-3-yl]amino}-1H-pyrazol-1-yl)-4-(cyanomethyl)piperidine-1-carboxylate], the IC50 at JAK1 (setting [1]) amounted to 0.01 nM; at JAK2, 0.6 nM.

With `N#CCC1(n2cc(C(N)=O)c(Nc3ccccc3)n2)CCN(C(=O)c2cccs2)CC1` [Example 34-14, 1-[4-(cyanomethyl)-1-(thiophen-2-ylcarbonyl)piperidin-4-yl]-3-(phenylamino)-1H-pyrazole-4-carboxamide], the half-maximal inhibitory concentration (IC50) was 0.3 nM on JAK1 (setting [1]) and 8 nM on JAK2.

For the compound `N#CCC1(n2cc(C(N)=O)c(Nc3ccc(F)cc3)n2)CCN(Cc2cncc(F)c2)CC1` [Example 22-49, 1-{4-(cyanomethyl)-1-[(5-fluoropyridin-3-yl)methyl]piperidin-4-yl}-3-[(4-fluorophenyl)amino]-1H-pyrazole-4-carboxamide], the results for the concentration for half-maximal inhibition (IC50) on JAK1 (setting [1]) and against JAK2 were 2 nM and 29 nM, respectively.

As to `N#CCC1(n2cc(C(N)=O)c(Nc3ccnc(F)c3)n2)CCC(NCc2ccccc2Cl)CC1` (stereo not drawn) [Example 41-16, Cis or trans 1-{4-[(2-chlorobenzyl)amino]-1-(cyanomethyl)cyclohexyl}-3-[(2-fluoropyridin-4-yl)amino]-1H-pyrazole-4-carboxamide], the figures for the IC50 at JAK1 (setting [1]) and against JAK2 were 24 nM and 912 nM, respectively.

Consider `N#CC[C@]1(n2cc(C(N)=O)c(Nc3ccc(F)cc3)n2)CC[C@@H](NCc2ccccc2)CC1` [Example 40-108, 1-[cis-4-(benzylamino)-1-(cyanomethyl)cyclohexyl]-3-[(4-fluorophenyl)amino]-1H-pyrazole-4-carboxamide], for which the half-maximal inhibitory concentration (IC50) at JAK1 (setting [1]) amounted to 0.09 nM; on JAK2, 2 nM.

Regarding `CN(C)CC(=O)N1CCC(CC#N)(n2cc(C(N)=O)c(Nc3ccccc3)n2)CC1` [Example 34-5, 1-[4-(cyanomethyl)-1-(N,N-dimethylglycyl)piperidin-4-yl]-3-(phenylamino)-1H-pyrazole-4-carboxamide], the IC50 on JAK1 (setting [1]) worked out at 13 nM; against JAK2, 318 nM.

Consider `N#CCC1(n2cc(C(N)=O)c(Nc3ccccc3)n2)CCN(C(=O)OC2CCOC2)CC1` (stereo not drawn) [Example 30-36, 4-carbamoyl-1-[4-(cyanomethyl)-1-{[(3R and 3S)-tetrahydrofuran-3-yloxy]carbonyl}piperidin-4-yl]-3-(phenylamino)-1H-pyrazol-2-ium], for which the figures for the half-inhibitory concentration (IC50) on JAK1 (setting [1]) and against JAK2 were 1 nM and 40 nM, respectively.

With `N#CCC1(n2cc(C(N)=O)c(Nc3cncc(F)c3)n2)CCN(C(=O)CC(F)(F)F)CC1` [Example 35-3, 1-(4-(cyanomethyl)-1-(3,3,3-trifluoropropanoyl)piperidin-4-yl)-3-(5-fluoropyridin-3-ylamino)-1H-pyrazole-4-carboxamide], the IC50 worked out at 3 nM at JAK1 (setting [1]) and 35 nM against JAK2.
